Measured values taken from patent US20120121610A1, “THERAPEUTIC AGENT AND ASSAY” (priority 2009, published 2012).
Values belong to the molecule of their own block, whether it stands above or below them.

Legend:
HeLa cells = assay: BrdU pulse / PI bivariate FACS analysis of replisome stability; assay type: cell-based; settings: hydroxyurea 24 hr
Experimental: In order to evaluate the effect of Claspin depletion on replisome stability, the ability of Claspin-depleted cells to maintain functional replisomes in the continuous presence of imposed replicational stress was investigated (FIG. 1). To do this, cells were treated with buffer control or 2 mM hydroxyurea (HU) for 24 h, then exposed to a 30 min pulse of BrdU, prior to fixation and PI staining, and subsequent bivariate FACS analysis.
(§1) HeLa or HCC1937 cells were seeded at 5×10^4 or 2×10^5 cells into 6-well tissue culture plates respectively, in 1 mL of their media and left for 24 hours. Cells were then washed twice with warm PBS and transfected twice over 48 hours with SMARTpool™ siRNA against Claspin (Dharmacon, Chicago, Ill., USA) at a concentration of 100 nM for 5 hours in serum free media (OptiMEM (Invitrogen)) using Oligofectamine (Invitrogen) as per manufacturer's instructions. After each transfection, cells were then washed once with warm PBS, and 1.5 mL of media added and then left for 19 hours. After transfection cells were trypsinized and seeded into 60 mm dishes and left in fresh media for 24 hours before being treated with either 0 or 2 mM HU for 24 hours. Alternatively cells were untreated, left in a flow cabinet for an equivalent time. […]

HCC1937 cells = assay: as above; assay type: cell-based; settings: mock siRNA-treated HCC1937 cells
Experimental: BRCA1 has been implicated previously in the cellular response to IR, and BRCA1-deficient cells fail to activate Chk1 following IR exposure. The inventors investigated the effect of siRNA-mediated knockdown of Claspin in HCC1937 cells which lack functional BRCA1 and which have been previously shown to have a defective G2 checkpoint, failing to arrest on exposure to IR. […] The loss of BrdU incorporation was particularly observed in mid- to late-S phase cells.
as §1

MDC1 = molecular target: T1, MDC1 (UniProt Q14676 1-2089); assay: co-immunoprecipitation with anti-Chk1 antibody from HeLa cell extracts, immunoblot
T1 construct: Endogenous protein in HeLa whole cell extract
T1 sequence (Q14676 whole entry): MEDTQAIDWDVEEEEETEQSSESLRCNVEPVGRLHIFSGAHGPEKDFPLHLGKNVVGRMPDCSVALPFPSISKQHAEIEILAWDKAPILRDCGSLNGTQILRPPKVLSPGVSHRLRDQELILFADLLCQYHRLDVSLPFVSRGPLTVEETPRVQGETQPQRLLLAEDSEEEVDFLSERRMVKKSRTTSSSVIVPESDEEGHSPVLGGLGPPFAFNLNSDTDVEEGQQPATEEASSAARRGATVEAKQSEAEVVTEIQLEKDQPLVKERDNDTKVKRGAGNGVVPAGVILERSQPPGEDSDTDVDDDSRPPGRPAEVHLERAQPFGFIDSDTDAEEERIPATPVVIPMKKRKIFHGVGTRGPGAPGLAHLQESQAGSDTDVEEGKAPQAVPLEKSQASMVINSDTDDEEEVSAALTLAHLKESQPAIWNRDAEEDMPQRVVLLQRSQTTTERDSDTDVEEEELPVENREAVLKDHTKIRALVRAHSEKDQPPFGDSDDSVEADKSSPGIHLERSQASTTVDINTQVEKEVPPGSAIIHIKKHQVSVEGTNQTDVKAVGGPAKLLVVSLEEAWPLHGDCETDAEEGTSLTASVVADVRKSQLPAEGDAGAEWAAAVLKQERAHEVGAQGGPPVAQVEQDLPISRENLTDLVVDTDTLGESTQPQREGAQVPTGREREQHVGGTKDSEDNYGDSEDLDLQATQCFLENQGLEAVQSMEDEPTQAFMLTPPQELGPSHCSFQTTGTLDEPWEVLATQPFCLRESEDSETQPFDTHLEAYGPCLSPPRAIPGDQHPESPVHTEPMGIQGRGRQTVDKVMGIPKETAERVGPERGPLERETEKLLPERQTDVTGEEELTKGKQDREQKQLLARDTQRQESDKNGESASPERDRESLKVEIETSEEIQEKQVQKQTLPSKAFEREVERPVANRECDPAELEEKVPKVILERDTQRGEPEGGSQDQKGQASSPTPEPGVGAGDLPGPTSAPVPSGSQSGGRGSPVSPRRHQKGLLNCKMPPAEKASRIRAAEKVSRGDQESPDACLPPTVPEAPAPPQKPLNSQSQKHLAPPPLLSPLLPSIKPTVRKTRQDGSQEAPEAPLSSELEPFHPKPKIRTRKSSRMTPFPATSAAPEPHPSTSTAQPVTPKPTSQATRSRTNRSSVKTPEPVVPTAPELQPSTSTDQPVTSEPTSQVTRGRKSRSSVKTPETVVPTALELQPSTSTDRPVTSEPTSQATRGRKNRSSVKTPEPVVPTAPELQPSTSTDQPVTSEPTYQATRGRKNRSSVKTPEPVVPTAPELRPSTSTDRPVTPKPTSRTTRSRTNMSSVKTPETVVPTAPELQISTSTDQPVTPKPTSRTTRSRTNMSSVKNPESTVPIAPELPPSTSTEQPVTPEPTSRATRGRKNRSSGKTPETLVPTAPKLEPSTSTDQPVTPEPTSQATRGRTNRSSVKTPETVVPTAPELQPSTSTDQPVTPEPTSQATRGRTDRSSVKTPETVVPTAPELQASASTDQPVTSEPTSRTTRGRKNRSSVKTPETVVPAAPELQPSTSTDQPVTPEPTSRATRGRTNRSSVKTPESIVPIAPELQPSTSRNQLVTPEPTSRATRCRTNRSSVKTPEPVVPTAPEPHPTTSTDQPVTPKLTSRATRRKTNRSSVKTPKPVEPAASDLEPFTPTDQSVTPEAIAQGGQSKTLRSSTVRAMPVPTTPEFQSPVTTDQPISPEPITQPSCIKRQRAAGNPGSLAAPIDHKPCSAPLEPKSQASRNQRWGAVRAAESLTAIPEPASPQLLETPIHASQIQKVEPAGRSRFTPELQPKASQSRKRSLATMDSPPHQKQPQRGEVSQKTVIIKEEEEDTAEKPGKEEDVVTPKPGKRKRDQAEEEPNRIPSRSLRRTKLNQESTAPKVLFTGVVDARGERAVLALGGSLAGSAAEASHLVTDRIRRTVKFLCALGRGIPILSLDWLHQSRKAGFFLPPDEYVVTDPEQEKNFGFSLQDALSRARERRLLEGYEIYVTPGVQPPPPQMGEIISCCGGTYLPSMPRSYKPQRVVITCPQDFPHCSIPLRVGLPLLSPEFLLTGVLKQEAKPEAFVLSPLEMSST
Experimental: (§2) Cells were then lysed through 3 freeze/thaw cycles, and clarified by centrifugation at 14,000 rpm for 5 mins at 4° C. The supernatant was then removed and assayed for concentration by Bradford assay (Pierce) and aliquots stored at −70° C. until use. For immunoblotting 25-60 μg of whole cell extract was used per well in Laemmli SDS loading buffer. Extracts were separated on 6-12% SDS-PAGE gels before being transferred to nitrocellulose membrane (Protran) for probing. Membranes were blocked in either 5% Marvel milk or 5% BSA according to antibody manufacturer's guidelines. Membranes were then washed before being probed with primary antibodies diluted in blocking buffer. […] Secondary antibodies were anti-rabbit IgG-HRP, anti-sheep IgG-HRP and anti-mouse IgG-HRP (Jackson Immunologicals) and bands were detected using enhanced chemiluminescence (ECL) (Amersham Pharmacia) and autoradiographic film (FUJI film).
(§3) Immunoprecipitation (IP) as carried out with 500 μg to 1 mg of whole cell extract per IP. […] Complexes isolated were then analysed by immunoblotting.

TopBP1 = molecular target: T2, TopBP1 (UniProt Q92547 1-1522); assay: as above
T2 construct: Endogenous protein in HeLa whole cell extract
T2 sequence (Q92547 whole entry): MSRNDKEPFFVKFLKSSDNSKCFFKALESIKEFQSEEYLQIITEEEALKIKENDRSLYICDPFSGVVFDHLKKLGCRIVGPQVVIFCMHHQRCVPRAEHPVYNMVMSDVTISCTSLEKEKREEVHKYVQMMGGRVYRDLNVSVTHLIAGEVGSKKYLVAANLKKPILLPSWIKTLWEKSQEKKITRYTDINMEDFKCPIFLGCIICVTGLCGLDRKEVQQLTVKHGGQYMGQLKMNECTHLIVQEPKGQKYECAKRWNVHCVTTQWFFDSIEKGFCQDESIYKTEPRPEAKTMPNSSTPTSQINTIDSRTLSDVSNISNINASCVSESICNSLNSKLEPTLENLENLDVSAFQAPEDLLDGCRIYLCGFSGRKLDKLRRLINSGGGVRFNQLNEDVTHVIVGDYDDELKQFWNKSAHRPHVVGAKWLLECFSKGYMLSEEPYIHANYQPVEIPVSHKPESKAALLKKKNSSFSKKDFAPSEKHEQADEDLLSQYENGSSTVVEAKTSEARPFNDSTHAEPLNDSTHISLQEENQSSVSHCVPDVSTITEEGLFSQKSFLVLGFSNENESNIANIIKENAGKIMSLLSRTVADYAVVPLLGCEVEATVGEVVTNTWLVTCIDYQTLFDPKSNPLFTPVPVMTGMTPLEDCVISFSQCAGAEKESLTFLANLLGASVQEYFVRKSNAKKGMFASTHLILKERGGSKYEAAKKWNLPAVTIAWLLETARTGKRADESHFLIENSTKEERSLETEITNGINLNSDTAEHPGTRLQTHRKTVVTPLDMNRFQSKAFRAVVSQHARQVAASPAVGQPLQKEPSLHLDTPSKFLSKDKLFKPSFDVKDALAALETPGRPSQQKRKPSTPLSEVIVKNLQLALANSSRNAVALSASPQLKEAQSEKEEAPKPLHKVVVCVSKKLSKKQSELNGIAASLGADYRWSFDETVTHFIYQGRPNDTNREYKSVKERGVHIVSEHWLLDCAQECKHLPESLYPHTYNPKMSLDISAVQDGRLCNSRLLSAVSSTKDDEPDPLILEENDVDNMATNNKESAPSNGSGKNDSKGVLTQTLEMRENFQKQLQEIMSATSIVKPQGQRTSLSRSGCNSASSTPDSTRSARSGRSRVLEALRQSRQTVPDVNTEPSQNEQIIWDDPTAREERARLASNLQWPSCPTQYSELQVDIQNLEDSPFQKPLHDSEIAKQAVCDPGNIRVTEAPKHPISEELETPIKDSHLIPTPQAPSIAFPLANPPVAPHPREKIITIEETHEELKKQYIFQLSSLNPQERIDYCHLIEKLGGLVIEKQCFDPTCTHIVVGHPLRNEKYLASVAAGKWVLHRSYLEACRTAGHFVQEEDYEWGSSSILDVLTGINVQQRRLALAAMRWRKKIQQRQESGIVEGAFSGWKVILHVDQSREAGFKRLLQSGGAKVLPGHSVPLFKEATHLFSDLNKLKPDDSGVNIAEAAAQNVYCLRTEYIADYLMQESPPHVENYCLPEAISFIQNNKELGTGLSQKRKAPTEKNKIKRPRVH
Experimental: as §2, §3

Molecule: NC(=O)NO [hydroxyurea]
accumulation of cells in early S phase (HeLa cells): significant accumulation of cells in early S phase
accumulation of cells in early S-phase (HCC1937 cells): accumulation of cells in early S-phase

binding result (MDC1): no binding
binding result (TopBP1): no binding
B1: Chk1 (serine/threonine protein kinase Chk1) (enzyme, UniProt O14757 1-476, looked up)
chain: MAVPFVEDWDLVQTLGEGAYGEVQLAVNRVTEEAVAVKIVDMKRAVDCPENIKKEICINKMLNHENVVKFYGHRREGNIQYLFLEYCSGGELFDRIEPDIGMPEPDAQRFFHQLMAGVVYLHGIGITHRDIKPENLLLDERDNLKISDFGLATVFRYNNRERLLNKMCGTLPYVAPELLKRREFHAEPVDVWSCGIVLTAMLAGELPWDQPSDSCQEYSDWKEKKTYLNPWKKIDSAPLALLHKILVENPSARITIPDIKKDRWYNKPLKKGAKRPRVTSGGVSESPSGFSKHIQSNLDFSPVNSASSEENVKYSSSQPEPRTGLSLWDTSPSYIDKLVQGISFSQPTCPDHMLLNSQLLGTPGSSQNPWQRLVKRMTRFFTKLDADKSYQCLKETCEKLGYQWKKSCMNQVTISTTDRRNNKLIFKVNLLEMDDKILVDFRLSKGDGLEFKRHFLKIKGKLIDIVSSQKIWLPAT
notes: Endogenous protein in HeLa whole cell extract; HeLa is a human cell line; also called Chk1 protein kinase
